Measurements taken from patent US9067932B2, “Pyrazolopyridine kinase inhibitors” (Vertex Pharmaceuticals Incorporated, priority 2010, dated 2015).

Tests used:
Type in all cases: biochemical
PKC delta kinase = PKC delta kinase (Homo sapiens, UniProt Q05655); test: PKC delta coupled-enzyme (NADH consumption) kinase assay; conditions: 46 nM PKC delta, 150 μM ATP, 30° C., initial rate at 340 nm
Procedure: (§1) An assay buffer solution was prepared which consisted of 100 mM HEPES (pH 7.5), 10 mM MgCl2, 25 mM NaCl, 0.1 mM EDTA and 0.01% Brij. […] To 16 μL of this enzyme buffer, in a 384 well plate, was added 1 μL of VRT stock solution in DMSO. […] The enzyme reaction was initiated by the addition of 16 μL stock ATP solution prepared in assay buffer to a final assay concentration of 150 μM. Initial rate data was determined from the rate of change of absorbance at 340 nm (corresponding to stoichiometric consumption of NADH) using a Molecular Devices Spectramax plate reader (Sunnyvale, Calif.) over 15 mins at 30° C. For each Ki determination 12 data points covering the VRT concentration range of 0-20 μM were obtained in duplicate (DMSO stocks were prepared from an initial 10 mM VRT stock with subsequent 1:2 serial dilutions). Ki values were calculated from initial rate data by non-linear regression using the Prism software package (Prism 4.0a, Graphpad Software, San Diego, Calif.).

PKC theta kinase = PKC theta kinase (Homo sapiens, UniProt Q04759); test: PKC theta coupled-enzyme (NADH consumption) kinase assay; conditions: 18 nM PKC theta, 240 μM ATP, 30° C., initial rate at 340 nm; read-out: Ki PKC theta
Sequence of PKC theta kinase (Q04759 whole entry): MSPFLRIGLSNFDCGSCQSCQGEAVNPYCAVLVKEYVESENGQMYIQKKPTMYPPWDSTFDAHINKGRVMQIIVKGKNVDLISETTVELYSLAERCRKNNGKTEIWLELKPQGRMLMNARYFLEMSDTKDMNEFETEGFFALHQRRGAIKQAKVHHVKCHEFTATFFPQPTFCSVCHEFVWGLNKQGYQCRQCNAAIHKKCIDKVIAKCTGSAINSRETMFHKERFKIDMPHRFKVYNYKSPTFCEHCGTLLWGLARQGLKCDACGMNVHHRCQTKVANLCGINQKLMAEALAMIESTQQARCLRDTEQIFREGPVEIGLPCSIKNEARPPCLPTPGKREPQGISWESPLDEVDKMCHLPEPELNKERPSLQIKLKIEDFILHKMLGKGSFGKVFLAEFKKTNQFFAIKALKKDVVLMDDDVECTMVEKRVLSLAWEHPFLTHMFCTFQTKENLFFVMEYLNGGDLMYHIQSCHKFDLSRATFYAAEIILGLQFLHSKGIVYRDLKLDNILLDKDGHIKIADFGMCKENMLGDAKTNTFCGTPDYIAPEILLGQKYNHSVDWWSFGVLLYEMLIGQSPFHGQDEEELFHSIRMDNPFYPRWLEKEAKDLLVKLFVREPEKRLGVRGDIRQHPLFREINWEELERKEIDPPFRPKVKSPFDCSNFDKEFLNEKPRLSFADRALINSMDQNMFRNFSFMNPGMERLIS
Procedure: as §1, with “To 60” for “To 16”, “added 2” for “added 1”, “of 5” for “of 16”, “of 240” for “of 150”

PKC alpha kinase = PKC alpha kinase (Homo sapiens, UniProt P17252); test: PKC alpha coupled-enzyme (NADH consumption) kinase assay; conditions: 4.5 nM PKC alpha, 130 μM ATP, 100 μM CaCl2, 30° C.; read-out: Ki PKC alpha
Procedure: An assay buffer solution was prepared which consisted of 100 mM HEPES (pH 7.5), 10 mM MgCl2, 25 mM NaCl, 0.1 mM EDTA, 100 μM CaCl2 and 0.01% Brij. An enzyme buffer containing reagents to final assay concentrations of 0.002% Triton X-100, 100 μg/mL Phosphatidylserine, 20 μg/mL Diacylglycerol, 360 μM NADH, 3 mM phosphoenolpyruvate, 70 μg/mL pyruvate kinase, 24 μg/mL lactate dehydrogenase, 2 mM DTT, 150 μM substrate peptide ([…] SEQ ID NO. 1) and 4.5 nM PKC alpha kinase was prepared in assay buffer. To 16 μL of this enzyme buffer, in a 384 well plate, was added 1 μL of VRT stock solution in DMSO. The mixture was allowed to equilibrate for 10 mins at 30° C. The enzyme reaction was initiated by the addition of 16 μL stock ATP solution prepared in assay buffer to a final assay concentration of 130 μM. Initial rate data was determined from the rate of change of absorbance at 340 nm (corresponding to stoichiometric consumption of NADH) using a Molecular Devices Spectramax plate reader (Sunnyvale, Calif.) over 15 mins at 30° C. For each Ki determination 12 data points covering the VRT concentration range of 0-20 μM were obtained in duplicate (DMSO stocks were prepared from an initial 10 mM VRT stock with subsequent 1:2 serial dilutions). Ki values were calculated from initial rate data by non-linear regression using the Prism software package (Prism 4.0a, Graphpad Software, San Diego, Calif.).

Sequence of PKC delta kinase (Q05655 whole entry): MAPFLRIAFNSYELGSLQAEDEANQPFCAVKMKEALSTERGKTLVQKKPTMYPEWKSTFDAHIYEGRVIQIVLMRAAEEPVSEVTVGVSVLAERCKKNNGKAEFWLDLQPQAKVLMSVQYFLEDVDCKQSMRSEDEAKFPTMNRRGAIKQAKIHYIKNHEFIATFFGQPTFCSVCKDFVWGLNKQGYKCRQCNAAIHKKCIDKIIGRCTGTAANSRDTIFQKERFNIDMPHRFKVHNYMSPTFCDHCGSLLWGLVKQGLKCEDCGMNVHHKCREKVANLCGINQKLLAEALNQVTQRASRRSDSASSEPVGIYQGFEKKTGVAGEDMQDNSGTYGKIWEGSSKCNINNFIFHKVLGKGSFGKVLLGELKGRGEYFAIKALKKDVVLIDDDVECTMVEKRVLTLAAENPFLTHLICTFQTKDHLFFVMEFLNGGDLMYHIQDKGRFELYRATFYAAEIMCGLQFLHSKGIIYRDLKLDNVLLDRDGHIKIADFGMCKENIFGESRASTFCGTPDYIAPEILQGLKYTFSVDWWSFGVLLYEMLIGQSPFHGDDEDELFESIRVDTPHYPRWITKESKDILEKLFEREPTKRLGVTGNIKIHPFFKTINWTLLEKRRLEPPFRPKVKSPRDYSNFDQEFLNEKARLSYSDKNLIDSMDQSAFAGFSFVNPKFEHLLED

SMILES | Ki (PKC delta kinase) [nM] | Ki (PKC theta kinase) [nM] | Ki (PKC alpha kinase) [nM]
CC1(C)CC1(O)C1CN(c2nc(-c3n[nH]c4ncccc34)c(F)cc2F)CCN1 (stereo not drawn) [Compound 2] | < 10 | < 1 | < 500
CC(C)[C@@](C)(O)[C@@H]1CN(c2nc(-c3n[nH]c4ncccc34)c(F)cc2Cl)CCN1 [Compound 9, (R)-2-((S)-4-(3-chloro-5-fluoro-6-(1H-pyrazolo[3,4-b]pyridin-3-yl)pyridin-2-yl)piperazin-2-yl)-3-methylbutan-2-ol] | < 50 | < 1 | < 500
CC(O)(C1CC1)C1CN(c2nc(-c3n[nH]c4ncccc34)c(F)cc2Cl)CCN1 (stereo not drawn) [Compound 30] | < 10 | < 1 | < 500
CC(C)(C)C(O)C1CN(c2nc(-c3n[nH]c4ncccc34)c(F)cc2F)CCN1 (stereo not drawn) [Compound 27] | < 10 | < 1 | < 500
